Test results published in article PMC12326976 (Antimicrobial Agents and Chemotherapy, 2025).
Bridge positions count the residues as written; N and C are the ends. Ends that are not written are not given here. I, II: the chains in the order shown.

Tests used:
[1] = mouse, in vivo; cited from earlier work
NA = assay: ELISA binding assay, NA; set-up: species or system influenza virus; conditions: 4H30 1 µg coated, NA 100 ng, anti-His antibody, Fig. 2a
Description: (§1) Peptides (1.0 µg per well) were dissolved in H2O. Influenza HA, NA (Sino, Cat^# 11058-V07B), or LDLR (Sino, Cat^# 10231-H081-50, 100 ng) dissolved in PBS was coated onto ELISA plates, incubated at 4°C overnight, and blocked with BSA at 4°C overnight. HA or VP1 was added to wells for binding and then determined by incubation with goat anti-His-HRP (Invitrogen, Cat^# R93125, 1: 2,000) at 37°C for 30 min. The reaction was developed by adding 100 µL of the TMB single solution (Life Technologies, Cat^# 002023) for 15 min at 37°C and stopped with 50 µL of 1 M H2SO4. Readings were obtained in an ELISA plate reader (Victor 1420 Multilabel Counter; PerkinElmer) at 450 nm.

rhinovirus A1 [2] = assay: Rhinovirus A1 in H1-Hela cells; type: cell-based; conditions: 4H30 25 μg mL^−1, viral RNA copies in cells at 16 hpi, Fig. S6a
Description: (§2) Fig. S6. […] H1-Hela cells are the standard cell model for efficient Rhinovirus A16 (RV-A16) replication. RV-A1 (a) or RV-A16 (b) was treated with 4H30 (25 μg mL^−1) for one hour of infection and then the infectious media were replaced with MEM with 4H30 for viral culture. Viral RNA copies in cells were measured at 16 hpi. Virus in MEM was the control. No viral infection was the mock control. Data are presented as mean ± SD of indicated biological samples.

rhinovirus A1 [3] = type: cell-based
H1N1 virus [4] = type: cell-based, influenza H1N1 virus
H1N1 virus [5] = type: cell-based, influenza H1N1 virus; remark: listed apart in the source
H1N1 virus [6] = assay: Viral attachment assay, H1N1 on MDCK cells; type: cell-based, influenza H1N1 virus
Description: (§3) Viruses (H1N1 or rhinovirus A1) were treated with DMEM, 4H30 (25 µg mL^−1), or an influenza neutralization antibody at room temperature for 30 min and then added to cells for attachment at 4°C for 1 h. After washing the unbound virus, the attached virus on cells was measured by RT-qPCR. At least two experiments with biological duplication samples were included for each treatment.
MDCK cells were treated by ChABC (Sigma, Cat^# C2905, 1 U mL^−1), Hase I–III (Sigma, Cat^# H3917, 100 mU mL^−1), and Hase II (Sigma, Cat^# H6515, 100 mU mL^−1) at 37°C for 2 h in the buffer according to the manufacturer’s instruction. After washing cells with PBS, MEM or 4H30 (25 µg mL^−1) was added to cells for 30 min incubation, and then cells were washed with PBS. H1N1 (MOI = 1.0) was added to cells for attachment at 4°C for 1 h. The unbound virus was washed with PBS. The concentration of the attached virus was measured by RT-qPCR.

H3N2 virus = assay: Plaque assay, H3N2 in MDCK cells; type: cell-based, influenza H3N2 virus; conditions: plaque number normalized to untreated virus, Fig. S2
Description: The antiviral activity of peptides was measured by plaque reduction assay. Briefly, peptides were dissolved in PBS or 20% PBS. Peptides (0.2-25.0 µg mL^−1) were premixed with H1N1 virus at room temperature. After 30 min of incubation, the peptide-virus mixture was transferred to MDCK cells for infection at 37°C. At 1 hpi, infectious media were removed, and then 1% low melting agar was added to cells. Cells were fixed using 4% formalin at 2–3 dpi. […] (0.1%) was added to cells for cell staining to count viral plaques.
Fig. S2. The antiviral activity of 4H30 against H3N2 virus in MDCK cells. H3N2 virus was treated with the indicated concentrations of 4H30 to infect MDCK cells. The percentage (%) was the plaque number of virus treated with 4H30 normalized to virus without treatment (0).

rhinovirus A1 [7] = assay: Viral attachment assay, rhinovirus A1 on RD cells; type: cell-based; conditions: virus treated with 4H30, attachment at 4°C, Fig. 4d
Description: as §3

H1N1 virus [8] = type: cell-based, influenza H1N1 virus; remark: listed apart in the source
LDLR = biological target: T1, LDLR (Homo sapiens, UniProt P01130); assay: ELISA binding assay, LDLR; conditions: 4H30 1.0 µg, 0.25 µg and 0 µg, Fig. 4g
T1 construct: His; purchased Sino 10231-H081-50
T1 sequence (P01130 22-860): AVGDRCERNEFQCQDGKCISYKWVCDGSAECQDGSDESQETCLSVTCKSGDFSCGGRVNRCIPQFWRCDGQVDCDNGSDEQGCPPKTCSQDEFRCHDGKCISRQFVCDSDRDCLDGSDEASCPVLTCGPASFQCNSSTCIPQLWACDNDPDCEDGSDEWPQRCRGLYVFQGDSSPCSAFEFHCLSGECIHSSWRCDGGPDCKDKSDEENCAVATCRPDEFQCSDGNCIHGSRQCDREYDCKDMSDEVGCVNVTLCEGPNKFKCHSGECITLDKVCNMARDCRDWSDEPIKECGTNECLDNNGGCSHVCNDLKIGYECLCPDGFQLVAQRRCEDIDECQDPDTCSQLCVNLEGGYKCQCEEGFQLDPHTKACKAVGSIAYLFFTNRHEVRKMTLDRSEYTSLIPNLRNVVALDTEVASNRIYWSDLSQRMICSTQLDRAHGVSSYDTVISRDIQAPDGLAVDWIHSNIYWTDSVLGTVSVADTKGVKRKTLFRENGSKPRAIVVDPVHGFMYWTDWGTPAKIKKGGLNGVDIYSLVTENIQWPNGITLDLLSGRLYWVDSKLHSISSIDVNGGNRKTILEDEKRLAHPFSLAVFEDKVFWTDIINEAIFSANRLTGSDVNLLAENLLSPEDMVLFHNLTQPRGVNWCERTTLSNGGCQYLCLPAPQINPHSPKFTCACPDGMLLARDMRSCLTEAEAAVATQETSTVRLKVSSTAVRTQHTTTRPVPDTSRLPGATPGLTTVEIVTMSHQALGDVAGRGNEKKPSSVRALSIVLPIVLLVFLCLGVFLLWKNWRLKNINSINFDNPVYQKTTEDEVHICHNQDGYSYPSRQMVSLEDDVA
Description: as §1

rhinovirus A1 [9] = type: cell-based; remark: listed apart in the source
rhinovirus A1 [10] = assay: Anti-rhinovirus assay in nasal organoids; type: cell-based; conditions: 4H30 25 µg mL^−1; viral loads in supernatants at 24, 48 and 72 hpi; RT-qPCR; Fig. 5b
Description: Organoid culture was established according to previous studies ([28], [29]). When the cells differentiated into mature 2D airway organoids within 12–14 days, the 2D organoids were ready for antiviral experiments. Rhinovirus (5000 TCID50) was mixed with peptide (25 µg mL^−1) or without peptides in culture media for organoid infection. After 2 h infection, we removed the infectious media and added fresh media with or without peptides. The supernatants were collected at 2 hpi, 24 hpi, 48 hpi, and 72 hpi to measure the viral loads by RT-qPCR.
Fig 5 4H30 inhibited rhinovirus replication in nasal organoids and cardiomyocytes. (a) Rhinovirus A1 could not replicate efficiently in mice. Rhinovirus (1 × 10^7 TCID50) was intranasally inoculated to mice. Viral RNAs were measured on day 1, day 2, and day 3 post-infection. […] (c) Rhinovirus A1 (0.01 MOI) could effectively replicate in cardiomyocytes. […] Viral RNAs in the cell supernatants were measured by RT-qPCR at the indicated time points. Data are presented as mean ± SD of indicated biological samples.

rhinovirus A16 = assay: Rhinovirus A16 in H1-Hela cells; type: cell-based; conditions: 4H30 25 μg mL^−1, viral RNA copies in cells at 16 hpi, Fig. S6b
Description: as §2

Substance: I: GAICHPVFCPRRYKQIGTCGLPGTKCCKKPKK / II: GAICHPVFCPRRYKQIGTCGLPGTKCCKKPK / III: GAICHPVFCPRRYKQIGTCGLPGTKCCKKP / IV: GAICHPVFCPRRYKQIGTCGLPGTKCCKKP (amide I:31-IV:C, I:32-II:C, II:31-III:C; cysteines drawn unpaired) [4H30]
- toxicity in mice [1]: without causing apparent toxicity
- binding to NA (NA): not effectively bound to NA
- inhibition of rhinovirus A1 in H1-Hela cells (rhinovirus A1 [2]): inhibited rhinovirus A1 in H1-Hela cells
- rhinovirus release from RD cells (rhinovirus A1 [3]): did not inhibit viral release
- H1N1 replication, cells treated before and after infection (1h-Pre, 1h-Post) (H1N1 virus [4]): did not show significant antiviral activity when cells were treated before and after viral infection
- H1N1 replication, virus treated before infection (H1N1 virus [4]): inhibited viral replication when the virus was treated with 4H30 before viral infection
- H1N1 viral release, supernatant virus at 8 hpi (H1N1 virus [5]): significantly inhibited H1N1 viral release from cells
- H1N1 viral release, supernatant virus at 18 hpi (H1N1 virus [5]): inhibited viral release at 18 hpi
- inhibition of viral release after removal of GAGs (H1N1 virus [5]): removal of GAGs reduced the activity of 4H30 in inhibiting viral release
- viral HA on cell membrane, anti-HA staining at 18 hpi (H1N1 virus [5]): more viral HA was detected on the cell membrane
- H1N1 attachment to MDCK cells (H1N1 virus [6]; 4H30 25 µg mL^−1, attachment at 4°C, RT-qPCR, Fig. 1d): increased the viral attachment to cells
- 4H30-induced increase in H1N1 attachment after removal of cellular GAGs (H1N1 virus [6]; MDCK cells treated with Hase and ChABC, 4H30 25 µg mL^−1, attachment at 4°C, Fig. 2d): significantly reduced when cells were treated with enzymes of Hase and ChABC
- inhibition of H3N2 virus infection (H3N2 virus): significantly inhibited group 2 influenza H3N2 virus infection
- rhinovirus attachment to RD cells (rhinovirus A1 [7]): reduced rhinovirus attachment to RD cells
- H1N1 entry into cells (H1N1 virus [8]): prevented viral entry into cells
- binding to LDLR (LDLR): bound to the LDLR receptor of rhinovirus
- RV-A1 replication, cells (1h-Pre) or virus (Pre-mix) treated before infection (rhinovirus A1 [9]): significantly inhibited viral replication when cells or viruses were treated with 4H30 before viral infection
- RV-A1 replication, cells treated after infection (1h-Post and 2h-Post) (rhinovirus A1 [9]): showed reduced antiviral activity when cells were treated after viral infection
- antiviral activity after treating rhinovirus and dilution (rhinovirus A1 [9]): did not show antiviral activity against rhinovirus
- antiviral activity when added after virus attachment (4H30-Post) (rhinovirus A1 [9]): antiviral activity diminished when rhinovirus was attached to cells at 4 °C and was treated with 4H30 at 1 hpi
- antiviral activity when present during viral infection (4H30-Pre) (rhinovirus A1 [9]): showed significant antiviral activity when treating virus during viral infection
- rhinovirus replication in nasal organoids (rhinovirus A1 [10]): significantly inhibited rhinovirus replication in nasal organoids
- inhibition of rhinovirus A16 in H1-Hela cells (rhinovirus A16): did not show antiviral activity against rhinovirus A16
